# Experimental data reported in ChEMBL document CHEMBL6153072, “Metabolically Stable Adenylation Inhibitors of Biotin Protein Ligase as Antibacterial Agents” (J Med Chem, 2025).
# Columns and labels:
# [1] = target: T1, Biotin--[acetyl-CoA-carboxylase] ligase (Mycobacterium tuberculosis (strain ATCC 25618 / H37Rv)) (UniProt I6YFP0); experiment: Binding affinity to Mycobacterium tuberculosis BPL assessed as change in entropy by isothermal titration calorimetry
# T1 sequence (whole entry): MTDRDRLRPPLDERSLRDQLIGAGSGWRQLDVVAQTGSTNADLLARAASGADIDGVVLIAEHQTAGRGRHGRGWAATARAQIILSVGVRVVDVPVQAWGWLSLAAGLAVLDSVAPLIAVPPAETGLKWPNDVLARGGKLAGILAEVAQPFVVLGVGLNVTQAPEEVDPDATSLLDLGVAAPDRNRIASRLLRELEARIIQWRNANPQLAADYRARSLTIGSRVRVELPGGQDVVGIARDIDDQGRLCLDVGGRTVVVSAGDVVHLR
# [2] = system: HepG2; experiment: Cytotoxicity against human HepG2 cells assessed as inhibition of cell viability preincubated for 24 hrs and measured after 4 hrs by XTT assay; format: functional, cell-based
# [3] = system: Mycobacterium tuberculosis; experiment: Antimicrobial activity against wild type Mycobacterium tuberculosis H37Rv assessed as inhibition of microbial growth incubated for 14 days in biotin-deficient GAST medium by broth microdilution assay; format: functional; settings: 336 h, time 14 day
# [4] = system: Staphylococcus aureus; experiment: Antimicrobial activity against methicillin-sensitive Staphylococcus aureus […] assessed as inhibition of microbial growth incubated for 14 days in biotin-deficient GAST medium by broth microdilution assay; format: functional; settings: 336 h, time 14 day
# [5] = system: Staphylococcus aureus; experiment: Antimicrobial activity against methicillin-resistant Staphylococcus aureus FPR3757 assessed as inhibition of microbial growth incubated for 14 days in biotin-deficient GAST medium by broth microdilution assay; format: functional; settings: FPR3757, 336 h, time 14 day
# [6] = AUC (0 to 24 hrs) in female CD-1 mouse at 5 mg/kg, iv administered […] measured after 24 hrs by LC-MS/MS analysis; format: ADME, organism-based; settings: in vivo
# [7] = Drug metabolism in female CD-1 mouse assessed as AUC (0 to 24 hrs) of adenosine-5-sulfamide metabolite at 5 mg/kg, iv administered […] measured after 24 hrs by LC-MS/MS analysis; format: ADME, organism-based; settings: in vivo
# [8] = Volume of distribution in female CD-1 mouse at 5 mg/kg, iv administered […] measured after 24 hrs by LC-MS/MS analysis; format: ADME, organism-based; settings: in vivo
# [9] = Clearance in female CD-1 mouse at 5 mg/kg, iv administered […] measured after 24 hrs by LC-MS/MS analysis; format: ADME, organism-based; settings: in vivo
# [10] = Half life in female CD-1 mouse at 5 mg/kg, iv administered […] measured after 24 hrs by LC-MS/MS analysis; format: ADME, organism-based; settings: in vivo
# [11] = target: T2, Biotin--[acetyl-CoA-carboxylase] ligase (Mycobacterium tuberculosis (strain ATCC 25618 / H37Rv), UniProt I6YFP0); experiment: Binding affinity to Mycobacterium tuberculosis BPL assessed as dissociation constant by isothermal titration calorimetry
# T2 sequence (I6YFP0 whole entry): T1 sequence (whole entry)
# [12] = target: T1, Biotin--[acetyl-CoA-carboxylase] ligase (Mycobacterium tuberculosis (strain ATCC 25618 / H37Rv)); experiment: Binding affinity to Mycobacterium tuberculosis BPL assessed as change in gibbs free energy by isothermal titration calorimetry
# [13] = target: T1, Biotin--[acetyl-CoA-carboxylase] ligase (Mycobacterium tuberculosis (strain ATCC 25618 / H37Rv)); experiment: Binding affinity to Mycobacterium tuberculosis BPL assessed as change in enthalpy by isothermal titration calorimetry
# [14] = Hepatic clearance in female CD-1 mouse at 5 mg/kg, iv administered […] measured after 24 hrs by LC-MS/MS analysis; format: ADME, organism-based; settings: in vivo
# [15] = Renal clearance in female CD-1 mouse at 5 mg/kg, iv administered […] measured after 24 hrs by LC-MS/MS analysis; format: ADME, organism-based; settings: in vivo
# [16] = AUC (0 to 24 hrs) in female CD-1 mouse at 10 mg/kg, iv administered […] measured after 24 hrs by LC-MS/MS analysis; format: ADME, organism-based; settings: in vivo
# [17] = Volume of distribution in female CD-1 mouse at 10 mg/kg, iv administered […] measured after 24 hrs by LC-MS/MS analysis; format: ADME, organism-based; settings: in vivo
# [18] = Clearance in female CD-1 mouse at 10 mg/kg, iv administered […] measured after 24 hrs by LC-MS/MS analysis; format: ADME, organism-based; settings: in vivo
# [19] = Half life in female CD-1 mouse at 10 mg/kg, iv administered via gavage measured after 24 hrs by LC-MS/MS analysis; settings: in vivo
# [20] = Cytotoxicity against African green monkey Vero cells; format: toxicity, cell-based, Chlorocebus sabaeus
Structure (SMILES),TdeltaS [1] [kcal/mol],IC50 [2] [nM],MIC50 [3] [µM],MIC50 [4] [µM],MIC50 [5] [µM],AUC(0-t) at 24 h [6] [ng·h/mL],AUC [7] [ng·h/mL],Vd [8] [L/kg],clearance [9] [mL/min/kg],half-life [10] [min],Kd [11] [nM],deltaG [12] [kcal/mol],deltaH [13] [kcal/mol],CLH [14] [mL/min/kg],CL renal at 24 h [15] [mL/min/kg],AUC(0-t) at 24 h [16] [ng·h/mL],Vd [17] [L/kg],clearance [18] [mL/min/kg],half-life at 24 h [19] [min],IC50 [20] [nM]
Nc1ncnc2c1ncn2[C@@H]1O[C@H](CNS(=O)(=O)[N-]C(=O)NCCC[C@@H]2SC[C@@H]3NC(=O)N[C@@H]32)[C@@H](O)[C@H]1O.[Na+],0.5,> 100000,20,0.2,0.2,11200,32,0.45,7,42,,,,,,,,,,
Nc1ncnc2c1ncn2[C@@H]1O[C@H](Cn2cc(C(=O)CCCC[C@@H]3SC[C@@H]4NC(=O)N[C@@H]43)nn2)[C@@H](O)[C@H]1O,,,> 100,29.4,29.4,,,,,,,,,,,,,,,
Nc1ncnc2c1ncn2[C@@H]1O[C@H](Cn2cc(CCCCC[C@@H]3SC[C@@H]4NC(=O)N[C@@H]43)nn2)[C@@H](O)[C@H]1O,4.3,,> 100,30,15,,,,,,62,-9.9,-14.2,,,,,,,
Nc1ncnc2c1ncn2[C@@H]1O[C@H](CNS(=O)(=O)[N-]C(=O)CCCC[C@@H]2SC[C@@H]3NC(=O)N[C@@H]32)[C@@H](O)[C@H]1O.[Na+],6.6,,2.2,0.21,0.02,1450,782,0.94,58,11,,-12.4,-18.9,22.5,22.5,,,,,
Nc1ncnc2c1ncn2[C@@H]1O[C@H](CNS(=O)(=O)NC(=S)NCCCC[C@@H]2SC[C@@H]3NC(=O)N[C@@H]32)[C@@H](O)[C@H]1O,4.3,,> 100,28.7,7.2,,,,,,60,-9.9,-14.2,,,,,,,
Nc1cccc2c1ncn2[C@@H]1O[C@H](CNS(=O)(=O)NC(=O)CCCC[C@@H]2SC[C@@H]3NC(=O)N[C@@H]32)[C@@H](F)[C@H]1O,4.8,,> 100,> 30,> 30,,,,,,228,-9.1,-13.9,,,,,,,
CC(CCC[C@@H]1SC[C@@H]2NC(=O)N[C@@H]21)C(=O)[N-]S(=O)(=O)NC[C@H]1O[C@@H](n2cnc3c(N)ncnc32)[C@H](O)[C@@H]1O.[Na+] (stereo partly drawn),1.5,,50,0.41,0.2,8640,29,0.54,10,39,22,-10.4,-11.9,,,,,,,
Nc1ncnc2c1ncn2[C@@H]1O[C@H](CNS(=O)(=O)NCCCCC[C@@H]2SC[C@@H]3NC(=O)N[C@@H]32)[C@@H](O)[C@H]1O,12.8,,> 100,28.7,14.4,,,,,,23,-10.4,-23.2,,,,,,,
Nc1cccc2c1ncn2[C@@H]1O[C@H](CNS(=O)(=O)NC(=O)CCCC[C@@H]2SC[C@@H]3NC(=O)N[C@@H]32)[C@@H](O)[C@H]1O,4.5,,> 100,> 30,> 30,,,,,,220,-9.4,-13.9,,,,,,,
Nc1cccc2c1ncn2CCCCNS(=O)(=O)NC(=O)CCCC[C@@H]1SC[C@@H]2NC(=O)N[C@@H]21,3.2,,21,> 30,> 30,,,,,,220,-9.1,-12.3,,,,,,,
CN(C(=O)CCCC[C@@H]1SC[C@@H]2NC(=O)N[C@@H]21)S(=O)(=O)NC[C@H]1O[C@@H](n2cnc3c(N)ncnc32)[C@H](O)[C@@H]1O,0.14,,> 100,> 30,> 30,,,,,,120,-9.7,-9.6,,,,,,,
Nc1ncnc2c1ncn2[C@@H]1O[C@H](CNS(=O)(=O)NC(=O)NCCCC[C@@H]2SC[C@@H]3NC(=O)N[C@@H]32)[C@@H](O)[C@H]1O,1.6,,> 100,0.25,0.12,,,,,,55,-9.9,-11.5,,,,,,,
CC(=O)NC[C@H]1CN(c2ccc(N3CCOCC3)c(F)c2)C(=O)O1 [LINEZOLID],,,,,,,,,,,,,,,,11000,0.63,16.3,33,
Nc1ncnc2c1ncn2[C@@H]1O[C@H](CNS(N)(=O)=O)[C@@H](O)[C@H]1O,,,,,,,,,,,,,,,,,,,,6000
Nc1ncnc2c1ncn2[C@@H]1O[C@H](CNS(=O)(=O)NC(=O)NCCCCC[C@@H]2SC[C@@H]3NC(=O)N[C@@H]32)[C@@H](O)[C@H]1O,0.48,,> 100,25.7,12.8,,,,,,110,-9.4,-9.9,,,,,,,
C[C@@H]1NC(=O)N[C@@H]1CCCCCC(=O)NS(=O)(=O)NC[C@H]1O[C@@H](n2cnc3c(N)cccc32)[C@H](O)[C@@H]1O,3,,> 100,> 30,> 30,,,,,,19,-10.6,-13.6,,,,,,,
